Laboratory results taken from the NIST ThermoML archive (doi:10.1016/j.fluid.2014.01.018).
Numbers after ± are expanded uncertainties.

Columns and labels:
[1] = Molar enthalpy of transition or fusion; conditions: Crystal; DSC
[2] = Crystal; DTA

Molar enthalpy of transition or fusion [1]: 4.65 ± 0.136 kcal/mol | Normal melting temperature [2]: 177.74 ± 0.41 °C
SMILES: CC(C)C1=CC2=CC[C@@H]3[C@](C)(CCC[C@@]3(C)C(=O)O)[C@H]2CC1 [abietic acid]
